# Reference: patent US9505735B2, “Compounds for treating infectious diseases” (Whitehead Institute for Biomedical Research, priority 2012, dated 2016)
# Columns and labels:
# [1] = tested on: amphotericin B-resistant or fluconazole-resistant C. albicans; assay: Co-culture of mammalian cells and C. albicans: fungal proliferation; assay type: cell-based; settings: 40 μM, 24 hours, serum-containing medium
# Procedure: (§1) For co-culture experiments, confluent layers of NIH 3T3 cells were established in 6-well plates. The following day, the medium was replaced with RPMI1640+10% FBS containing the amphotericin-resistant strain CaAmphR at […] colony forming units per ml and 40 μM gepinacin or an equivalent amount of DMSO. Co-cultures were incubated for 24 hours at 37° C. in a micro-isolator box. Images were acquired on a Nikon Eclipse TS100 microscope at 40×.
# (§2) Having determined the target of gepinacin in fungi, gepinacin's effect on the human ortholog of Gwt1, PIG-W, was examined. To determine if gepinacin remained active under mammalian cell culture conditions cultured fungi were cultured (either an amphotericin B-resistant (FIG. 3a) or fluconazole-resistant (data not shown) isolate of C. albicans) and mammalian cells together with 40 μM gepinacin. […] PIG-W (and GPI anchor biosynthesis) is not essential for mammalian cells in culture.
# [2] = tested on: S. cerevisiae strains with graded levels of Gwt1 expression; assay: Antifungal susceptibility testing of strains with graded GWT1 copy number; assay type: cell-based
# Text: (A) Anti-fungal susceptibility testing of S. cerevisiae strains with graded levels of Gwt1 expression treated with gepinacin. Wild type diploids (Wt) or diploids with one copy of GWT1 deleted (gwt1/GWT1) were transformed with low copy (CEN) plasmids encoding GWT1 or GFP (as a control). (B) Schematic of Gwt1 protein function in cells. Glucosamine (shown as a black circle) phosphatidyl inositol (GlcN-PI) is acylated (orange zigzag) by Gwt1 to become GlcN-(acyl)PI.
# Anti-fungal susceptibility testing of wild type diploids (Wt) or diploids with one copy of GWT1 deleted (gwt1Δ/GWT1) transformed with high copy (2 micron) plasmids containing GWT1 or GFP (as a control). The strains were treated with gepinacin for 48 hours and the growth was monitored by measuring the optical density at 600 nm (OD600). The results are expressed as a fraction of the OD600 measured in the absence of gepinacin.
# To determine the mechanism responsible for the antifungal activity of the compound, the powerful genetic tools available in the model fungal organism S. cerevisiae were utilized. Both an arrayed haploid over-expression library and a pooled heterozygous deletion library were screened for enhancement or suppression of toxicity. […] With each strain expressing one open reading frame (ORF), this library covered approximately 90% of the yeast genome. […]
# [3] = tested on: RAW264.7 macrophages co-cultured with treated C. albicans; assay: Macrophage stimulation and TNFα measurement (ELISA); assay type: cell-based, mouse; settings: 2 hours co-culture
# Procedure: Cultures of C. albicans Sc5314 cells were drug treated as described for β-glucan staining. After overnight incubation, cultures were washed extensively, counted, and added to cultures of the mouse macrophage cell line RAW264.7 at a macrophage:yeast ratio of 1:2.5 in the continued presence of drug. After 2 hours supernatants were harvested and TNFα concentration measured by ELISA using a kit according to manufacturer's instructions (DY410, R&D Systems).
# NIH 3T3 cells = assay: Co-culture of mammalian cells and C. albicans: mammalian cells; assay type: cell-based; settings: 40 μM, 24 hours
# Procedure: as §1, §2
compound,measurement,setting,value
COc1ccc(NC(=O)COc2cccc(OCC(C)C)c2)cc1 [gepinacin],fungal proliferation in co-culture,[1],profound inhibition of proliferation
same,toxicity versus GWT1 copy number,[2],inversely correlated with GWT1 copy number
same,TNFα secretion by macrophages,[3],more than doubled
same,effect on mammalian cells in co-culture,NIH 3T3 cells,no effect
